Structures are written as SMILES.

The target of the first test is T1, KRAS G12C 1-169, his-tagged protein, GDP-loaded (Homo sapiens, UniProt P01116, G12C).
T1 construct: KRAS G12C 1-169, his-tagged protein, GDP-loaded
As to the kind of experiment: Covalent binding (% modification) to KRAS G12C by mass spectrometry. Also: test concentration or dose not given here. Conditions: covalent binding to KRAS G12C after a ten minute incubation period.
For `C=CC(=O)N1C[C@H](C)N(c2nc(O)nc3c(F)c(-c4c(O)cccc4F)c(Cl)cc23)C[C@H]1C` [Compound 51, 1-((2R,5S)-4-(6-chloro-8-fluoro-7-(2-fluoro-6-hydroxyphenyl)-2-hydroxy-quinazolin-4-yl)-2,5-dimethyl-piperazin-1-yl) prop-2-en-1-one], the Binding % entry was “+ (+ indicates binding activity up to 50%)”.

For `C=CC(=O)N1[C@H](C)CN(c2nc(N3CC(N(C)C)C3)nc3c(F)c(-c4c(C)ccc5cn[nH]c45)c(Cl)cc23)C[C@@H]1C` [Compound 27, 1-((2R,6S)-4-(6-chloro-2-(3-(dimethylamino)azetidin-1-yl)-8-fluoro-7-(6-methyl-1H-indazol-7-yl)quinazolin-4-yl)-2,6-dimethyl-piperazin-1-yl) prop-2-en-1-one], the Binding % result is listed as “++ (++ indicates binding activity from 50 to 90%)”. For `C=CC(=O)N1C[C@@H](C)N(c2nc(NC3CCN(C4CC4)CC3)nc3c(F)c(-c4c(C)ccc5[nH]ncc45)c(Cl)cc23)[C@@H](C)C1` [Compound 42, 1-((3S,5R)-4-(6-chloro-2-((1-cyclopropyl-piperidin-4-yl)amino)-8-fluoro-7-(5-methyl-1H-indazol-4-yl)quinazolin-4-yl)-3,5-dimethyl-piperazin-1-yl) prop-2-en-1-one], the Binding % entry is “++ (++ indicates binding activity from 50 to 90%)”. For `C=CC(=O)N1C[C@H](C)N(c2nc(OCCN(CC)CC)nc3c(F)c(-c4c(O)cccc4F)c(Cl)cc23)C[C@H]1C` (atropisomer, axis not shown) [Compound 74, 1-((2R,5S)-4-((R)-6-chloro-2-(2-(diethylamino)ethoxy)-8-fluoro-7-(2-fluoro-6-hydroxyphenyl)quinazolin-4-yl)-2,5-dimethyl-piperazin-1-yl) prop-2-en-1-one], the Binding % result was “+ (+ indicates binding activity up to 50%)”.

On to `C=CC(=O)N1C[C@@H](C)N(c2nc(OCCc3ccccn3)nc3c(F)c(-c4c(O)cccc4F)c(Cl)cc23)[C@@H](C)C1` [Compound 49, 1-((3S,5R)-4-(6-chloro-8-fluoro-7-(2-fluoro-6-hydroxyphenyl)-2-(2-(pyridin-2-yl)ethoxy)quinazolin-4-yl)-3,5-dimethyl-piperazin-1-yl) prop-2-en-1-one], for which the Binding % result is given as “++ (++ indicates binding activity from 50 to 90%)”. The same measure, in the same setting: for `C=CC(=O)N1C[C@H](C)N(c2nc(OCCc3ccccn3)nc3c(F)c(-c4c(O)cccc4F)c(Cl)cc23)C[C@H]1C` [Compound 65, 1-((2R,5S)-4-(6-chloro-8-fluoro-7-(2-fluoro-6-hydroxyphenyl)-2-(2-(pyridin-2-yl)ethoxy)quinazolin-4-yl)-2,5-dimethyl-piperazin-1-yl) prop-2-en-1-one] the value was “+++ (+++ indicates binding activity greater than 90%)”. Still for that read-out and setting: the same measure for `C=CC(=O)N1C[C@H](C)N(c2nc(N3CC(N(C)C)C3)nc3c(F)c(-c4c(O)cccc4F)c(Cl)cc23)C[C@H]1C` (atropisomer, axis not shown) [Compound 52, 1-((2R,5S)-4-((S)-6-chloro-2-(3-(dimethylamino)azetidin-1-yl)-8-fluoro-7-(2-fluoro-6-hydroxyphenyl)quinazolin-4-yl)-2,5-dimethyl-piperazin-1-yl) prop-2-en-1-one]: “+++ (+++ indicates binding activity greater than 90%)”; for `C=CC(=O)N1[C@H](C)CN(c2nc(OC3CCN(C4CC4)CC3)nc3c(F)c(-c4c(C)ccc5[nH]ncc45)c(Cl)cc23)C[C@@H]1C` [Compound 37, 1-((2S,6R)-4-(6-chloro-2-((1-cyclopropyl-piperidin-4-yl)oxy)-8-fluoro-7-(5-methyl-1H-indazol-4-yl)quinazolin-4-yl)-2,6-dimethyl-piperazin-1-yl) prop-2-en-1-one]: “++ (++ indicates binding activity from 50 to 90%)”.

The test is the same for the next values; noted with them: covalent binding to KRAS G12C after a three minute incubation period.
Consider `C=CC(=O)N1C[C@H](C)N(c2nc(N3CC4(CCCN(C)C4)C3)nc3c(F)c(-c4c(C)ccc5[nH]ncc45)c(Cl)cc23)C[C@H]1C` [Compound 194, 1-((2R,5S)-4-(6-chloro-8-fluoro-7-(5-methyl-1H-indazol-4-yl)-2-(6-methyl-2,6-diazaspiro[3.5]nonan-2-yl)quinazolin-4-yl)-2,5-dimethyl-piperazin-1-yl) prop-2-en-1-one], for which the Binding % entry is recorded as “++ (++ indicates binding activity from 50 to 90%)”. For the molecule `C=CC(=O)N1C[C@H](C)N(c2nc(N3CC(N4CCC(F)(F)C4)C3)nc3c(F)c(-c4c(O)cccc4F)c(Cl)cc23)C[C@H]1C` [Compound 103, 1-((2R,5S)-4-(6-chloro-2-(3-(3,3-difluoro-pyrrolidin-1-yl)azetidin-1-yl)-8-fluoro-7-(2-fluoro-6-hydroxyphenyl)quinazolin-4-yl)-2,5-dimethyl-piperazin-1-yl) prop-2-en-1-one], the Binding % result is “+ (+ indicates binding activity greater than 0% and up to 50%)”. Consider `C=CC(=O)N1CCN(c2nc(N3CC(C)(N(C)C)C3)nc3c(F)c(-c4c(O)cccc4F)c(Cl)cc23)C[C@H]1C` [Compound 163, 1-((2R)-4-(6-chloro-2-(3-(dimethylamino)-3-methylazetidin-1-yl)-8-fluoro-7-(2-fluoro-6-hydroxyphenyl)quinazolin-4-yl)-2-methyl-piperazin-1-yl) prop-2-en-1-one], for which the Binding % entry is “++ (++ indicates binding activity from 50 to 90%)”.

In the case of `C=CC(=O)N1C[C@H](C)N(c2nc(N3CC(N(C)C)C3)nc3c(F)c(-c4c(F)cccc4OC(C)=O)c(Cl)cc23)C[C@H]1C` [Compound 214, 2-(4-((2S,5R)-4-acryloyl-2,5-dimethylpiperazin-1-yl)-6-chloro-2-(3-(dimethylamino)azetidin-1-yl)-8-fluoroquinazolin-7-yl)-3-fluoro-phenyl acetate], the Binding % result is “+ (+ indicates binding activity greater than 0% and up to 50%)”. As to `C=CC(=O)N1C[C@H](C)N(c2nc(OCCc3ncccn3)nc3c(F)c(-c4c(O)cccc4F)c(Cl)cc23)C[C@H]1C` [Compound 198, 1-((2R,5S)-4-(6-chloro-8-fluoro-7-(2-fluoro-6-hydroxyphenyl)-2-(2-(pyrimidin-2-yl)ethoxy)quinazolin-4-yl)-2,5-dimethyl-piperazin-1-yl) prop-2-en-1-one], the Binding % entry is on record as “+++ (+++ indicates binding activity greater than 90%)”. Still for that read-out and setting: the same measure for `C=CC(=O)N1C[C@H](C)N(c2nc(OCCN3CCC(F)(F)C3)nc3c(F)c(-c4c(C)ccc5cn[nH]c45)c(Cl)cc23)C[C@H]1C` [Compound 202, 1-((2R,5S)-4-(6-chloro-2-(2-(3,3-difluoro-pyrrolidin-1-yl)ethoxy)-8-fluoro-7-(6-methyl-1H-indazol-7-yl)quinazolin-4-yl)-2,5-dimethyl-piperazin-1-yl) prop-2-en-1-one]: “+++ (+++ indicates binding activity greater than 90%)”; for `C=CC(=O)N1C[C@H](C)N(c2nc(N3CC(N(C)C)C3)nc3c(F)c(-c4c(O)ccc5ccccc45)c(Cl)cc23)C[C@H]1C` [Compound 211, 1-((2R,5S)-4-(6-chloro-2-(3-(dimethylamino)azetidin-1-yl)-8-fluoro-7-(2-hydroxynaphthalen-1-yl)quinazolin-4-yl)-2,5-dimethyl-piperazin-1-yl) prop-2-en-1-one]: “++ (++ indicates binding activity from 50 to 90%)”. For `C=CC(=O)N1C[C@H](C)N(c2nc(OCCCN3CCC(F)(F)C3)nc3c(F)c(-c4cc(O)cc5ccccc45)c(Cl)cc23)C[C@H]1C` [Compound 221, 1-((2R,5S)-4-(6-chloro-2-(3-(3,3-difluoropyrrolidin-1-yl)propoxy)-8-fluoro-7-(3-hydroxynaphthalen-1-yl)quinazolin-4-yl)-2,5-dimethyl-piperazin-1-yl) prop-2-en-1-one], the Binding % entry was “+ (+ indicates binding activity greater than 0% and up to 50%)”. `C=CC(=O)N1C[C@H](C)N(c2nc(N3CC(N(C)C)C3)nc3c(F)c(-c4ccccc4C(F)(F)F)c(Cl)cc23)C[C@H]1C` [Compound 168, 1-((2R,5S)-4-(6-chloro-2-(3-(dimethylamino)azetidin-1-yl)-8-fluoro-7-(2-(trifluoromethyl)phenyl)quinazolin-4-yl)-2,5-dimethyl-piperazin-1-yl) prop-2-en-1-one]: the Binding % entry is recorded as “++ (++ indicates binding activity from 50 to 90%)”. On to `C=CC(=O)N1C[C@H](C)N(c2nc(N3CC(N(C)C)C3)nc3c(F)c(-c4c(O)cccc4F)c(Cl)cc23)C[C@@H]1C` [Compound 94, 1-((2S,5S)-4-(6-chloro-2-(3-(dimethylamino)azetidin-1-yl)-8-fluoro-7-(2-fluoro-6-hydroxyphenyl)quinazolin-4-yl)-2,5-dimethyl-piperazin-1-yl) prop-2-en-1-one], for which the Binding % result was “+ (+ indicates binding activity greater than 0% and up to 50%)”.

For `C=CC(=O)N1C[C@H](C)N(c2nc(N3CC4(CCCN(C5CC5)C4)C3)nc3c(F)c(-c4c(O)cccc4F)c(Cl)cc23)C[C@H]1C` [Compound 195, 1-((2R,5S)-4-(6-chloro-2-(6-cyclopropyl-2,6-diazaspiro[3.5]nonan-2-yl)-8-fluoro-7-(2-fluoro-6-hydroxyphenyl)quinazolin-4-yl)-2,5-dimethyl-piperazin-1-yl) prop-2-en-1-one], the Binding % entry was “+ (+ indicates binding activity greater than 0% and up to 50%)”.

As to `C=CC(=O)N1C[C@H](C)N(c2nc(N3CC4(CCN(C5CC5)C4)C3)nc3c(F)c(-c4c(C)ccc5[nH]ncc45)c(Cl)cc23)C[C@H]1C` [Compound 140, 1-((2R,5S)-4-(6-chloro-2-(6-cyclopropyl-2,6-diazaspiro[3.4]octan-2-yl)-8-fluoro-7-(5-methyl-1H-indazol-4-yl)quinazolin-4-yl)-2,5-dimethyl-piperazin-1-yl) prop-2-en-1-one], the Binding % result was “++ (++ indicates binding activity from 50 to 90%)”. Same read-out and setting: the same measure for `C=CC(=O)N1C[C@H](C)N(c2nc(N3CC(N(C)C)C3)nc3c(F)c(-c4cc5ccccc5cc4O)c(Cl)cc23)C[C@H]1C` [Compound 146, 1-((2R,5S)-4-(6-chloro-2-(3-(dimethylamino)azetidin-1-yl)-8-fluoro-7-(3-hydroxynaphthalen-2-yl)quinazolin-4-yl)-2,5-dimethyl-piperazin-1-yl) prop-2-en-1-one]: “+ (+ indicates binding activity greater than 0% and up to 50%)”.
